Results from patent publication US20250268429A1, “Fluid Dispenser With Automatic Fluid Composition Adjustment” (OP-HYGIENE IP GmbH, priority 2024, published 2025).

System: Bacillus subtilis spores
Test: in vitro killing of Bacillus subtilis spores by foam compositions (LOG reduction factor, CFU count)
Format: cell-based
Details: conclusion from Table 3
Procedure: The compositions of Foams 1 to 6 are the same as in Table 1. Foam 7 contained 70% isopropanol.
In the in vitro experiments summarized above, the following method was used: the bacterial culture was serially diluted (1 LOG); the tested foam was added to 50 μL of the diluted solution and stirred for 15 seconds; the resulting mixture was transferred to an agar plate and incubated for 24 hours before counting the bacterial colonies (CFUs). The LOG reduction factor was calculated as the LOG bacteria before treatment minus the LOG bacteria after treatment.

Structure (SMILES): CC(C)O [Isopropanol, isopropanol]
- effectiveness at killing Bacillus subtilis spores (in words): not effective
